Data from the supplement of paper PMC7661543.
± gives the standard deviation of the averaged measurements.

Key:
Experiment in all cases: relative cell number vs DMSO control (72 h) (% of DMSO); higher = less growth inhibition (more cells)
Conditions in all cases: sgRNA knockout: sgNT
[1] = tested on: BT-20
Protocol: (§1)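 QMAP-Seq: a pool of 5 breast cancer cell lines (ZR-75-1, SKBR3, HCC-38, MDA-MB-231, BT-20), each carrying 12 doxycycline-inducible Cas9 sgRNA perturbations (11 knockouts plus non-targeting sgNT), was treated with compounds for 72 h at four 10-fold doses (10 nM-10 uM or 1 nM-1 uM range). Barcodes were amplified and sequenced, and cell number was interpolated from 293T spike-in standard curves. The result is expressed as % of the median of DMSO wells. Two biological replicates.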

[2] = tested on: HCC-38
Protocol: as §1

[3] = tested on: MDA-MB-231
Protocol: as §1

[4] = tested on: SKBR3
Protocol: as §1

[5] = tested on: ZR-75-1
Protocol: as §1

Row | SMILES | relative cell number ([1]; 1 nM) | relative cell number ([1]; 10 nM) | relative cell number ([1]; 100 nM) | relative cell number ([1]; 1000 nM) | relative cell number ([2]; 1 nM) | relative cell number ([2]; 10 nM) | relative cell number ([2]; 100 nM) | relative cell number ([2]; 1000 nM) | relative cell number ([3]; 1 nM) | relative cell number ([3]; 10 nM) | relative cell number ([3]; 100 nM) | relative cell number ([3]; 1000 nM) | relative cell number ([4]; 1 nM) | relative cell number ([4]; 10 nM) | relative cell number ([4]; 100 nM) | relative cell number ([4]; 1000 nM) | relative cell number ([5]; 1 nM) | relative cell number ([5]; 10 nM) | relative cell number ([5]; 100 nM) | relative cell number ([5]; 1000 nM) | relative cell number ([1]; 10000 nM) | relative cell number ([2]; 10000 nM) | relative cell number ([3]; 10000 nM) | relative cell number ([4]; 10000 nM) | relative cell number ([5]; 10000 nM)
1 | CC(C)(C#N)c1cc(Cn2cncn2)cc(C(C)(C)C#N)c1 [Anastrozole] | 112 ± 1.8 | 103 ± 50 | 116 ± 12 | 114 ± 15 | 106 ± 9.5 | 116 ± 3.1 | 103 ± 5.8 | 115.2 ± 0.88 | 107 ± 8.8 | 110 ± 75 | 121 ± 17 | 115 ± 22 | 123 ± 23 | 90.3 ± 18 | 118 ± 17 | 103 ± 13 | 76.6 ± 1.4 | 151 ± 25 | 100 ± 3.4 | 120 ± 17 | – | – | – | – | –
2 | CCN1CCN(c2ccc(Nc3cc(N(C)C(=O)Nc4c(Cl)c(OC)cc(OC)c4Cl)ncn3)cc2)CC1 [BGJ398] | – | 80.6 ± 10 | 104 ± 1.5 | 88.5 ± 15 | – | 93.6 ± 16 | 66.73 ± 0.28 | 60.5 ± 4.7 | – | 81.7 ± 12 | 83.1 ± 16 | 116 ± 2.1 | – | 99.1 ± 6.7 | 106 ± 32 | 67.6 ± 6.6 | – | 77.02 ± 0.32 | 116 ± 13 | 105 ± 14 | 82.8 ± 18 | 58.5 ± 0.79 | 65.2 ± 12 | 75 ± 18 | 78.1 ± 26
3 | COC(=O)[C@]12CCC(C)(C)C[C@H]1[C@H]1C(=O)C=C3[C@@]4(C)C=C(C#N)C(=O)C(C)(C)[C@@H]4CC[C@@]3(C)[C@]1(C)CC2 [BardoxoloneMethyl] | – | 73.5 ± 19 | 66.2 ± 6.3 | 16.2 ± 4 | – | 96 ± 7.2 | 99.93 ± 0.61 | 26.6 ± 3.4 | – | 109 ± 22 | 66.5 ± 37 | 16.4 ± 11 | – | 100.4 ± 0.77 | 66.6 ± 13 | 7.42 ± 0.66 | – | 74.7 ± 11 | 49.3 ± 14 | 14.3 ± 2.1 | 4.97 ± 2.9 | 5.24 ± 0.59 | 5.3 ± 1.9 | 4.14 ± 0.45 | 5.42 ± 4.3
4 | Cn1c(CCCC(=O)O)nc2cc(N(CCCl)CCCl)ccc21 [Bendamustine] | – | 90.6 ± 14 | 114 ± 25 | 112 ± 33 | – | 104 ± 6 | 103 ± 1.1 | 109 ± 17 | – | 111 ± 13 | 123 ± 10 | 95.8 ± 17 | – | 86.7 ± 9.2 | 115 ± 21 | 118 ± 21 | – | 82.4 ± 11 | 123 ± 6.9 | 63.7 ± 27 | 124 ± 14 | 115 ± 4.3 | 127 ± 3.8 | 109 ± 44 | 97.9 ± 9.2
5 | C=C(C)[C@@H]1CC[C@]2(C(=O)O)CC[C@]3(C)[C@H](CC[C@@H]4[C@@]5(C)CC[C@H](O)C(C)(C)[C@@H]5CC[C@]43C)[C@@H]12 [BetulinicAcid] | – | 86.7 ± 12 | 78.6 ± 3.6 | 86.4 ± 13 | – | 106 ± 10 | 82.2 ± 9.4 | 98 ± 32 | – | 74.3 ± 2.1 | 92.9 ± 11 | 69.8 ± 21 | – | 76.3 ± 23 | 95 ± 13 | 86 ± 5.5 | – | 90.9 ± 11 | 97.1 ± 4.8 | 94.5 ± 43 | 108 ± 1.7 | 96.4 ± 1.5 | 117 ± 24 | 96.4 ± 11 | 110 ± 11
6 | C=C(c1ccc(C(=O)O)cc1)c1cc2c(cc1C)C(C)(C)CCC2(C)C [Bexarotene] | – | 122 ± 11 | 119 ± 25 | 112 ± 33 | – | 85.51 ± 0.16 | 90.4 ± 9 | 94.9 ± 8 | – | 146 ± 83 | 73.6 ± 3.8 | 95.3 ± 16 | – | 107 ± 4.7 | 72.8 ± 16 | 71.6 ± 34 | – | 97.6 ± 34 | 78.4 ± 27 | 72.2 ± 19 | 137 ± 30 | 108 ± 8.4 | 80.2 ± 31 | 90 ± 11 | 70.3 ± 5.1
7 | Cc1ccc2c(c1)C(=O)C1(O)CCN(c3ccccc3)C1=N2 (stereo not given) [Blebbistatin] | – | 115.9 ± 0.31 | 128 ± 6.2 | 130 ± 4 | – | 125 ± 10 | 118 ± 4.2 | 115 ± 13 | – | 110 ± 16 | 138.4 ± 0.51 | 144 ± 49 | – | 114 ± 20 | 111 ± 16 | 126 ± 11 | – | 108 ± 9.9 | 112 ± 9.8 | 98.1 ± 39 | 125 ± 46 | 69.5 ± 7.5 | 97 ± 12 | 96.52 ± 0.14 | 84.1 ± 7.3
8 | CC(C)C[C@H](NC(=O)[C@H](Cc1ccccc1)NC(=O)c1cnccn1)B(O)O [Bortezomib] | 71.71 ± 0.27 | 74.6 ± 13 | 24.7 ± 9.2 | 16.7 ± 2.3 | 91.8 ± 5.8 | 36.8 ± 2.4 | 4.58 ± 0.053 | 7.2 ± 1.2 | 86.7 ± 9.3 | 65.2 ± 19 | 6.68 ± 5 | 13.2 ± 6.6 | 94.4 ± 13 | 34.3 ± 8 | 14.2 ± 4.1 | 9.59 ± 4 | 72 ± 20 | 80 ± 17 | 17.2 ± 3.5 | 13.4 ± 2.8 | – | – | – | – | –
9 | C[C@H]1CCC/C=C/[C@@H]2C[C@H](O)C[C@H]2[C@H](O)/C=C/C(=O)O1 [BrefeldinA] | – | 84.9 ± 25 | 25.6 ± 6.2 | 31.1 ± 3.5 | – | 92.1 ± 16 | 54.8 ± 7.7 | 35.3 ± 11 | – | 108 ± 22 | 14.1 ± 7.9 | 7.55 ± 2.6 | – | 89.9 ± 43 | 17.7 ± 11 | 5.96 ± 2.5 | – | 86.8 ± 14 | 18.7 ± 2.6 | 8.03 ± 3.4 | 31.5 ± 9.4 | 23.6 ± 7.5 | 9.31 ± 2.6 | 6.07 ± 0.93 | 5.82 ± 3.4
10 | Cc1cc2c(F)c(Oc3ncnn4cc(OC[C@@H](C)O)c(C)c34)ccc2[nH]1 [Brivanib] | – | 119 ± 35 | 78.5 ± 1.6 | 109 ± 18 | – | 96.9 ± 6.4 | 84.3 ± 9.9 | 96.7 ± 2.2 | – | 107 ± 31 | 106 ± 25 | 122 ± 9.6 | – | 112 ± 6.1 | 61.5 ± 12 | 82.4 ± 11 | – | 86.5 ± 18 | 66.1 ± 24 | 111 ± 19 | 93.9 ± 4 | 84.119 ± 0.073 | 58.7 ± 9.5 | 60.9 ± 28 | 53.5 ± 20
11 | CC[C@H](Nc1ncnc2[nH]cnc12)c1nc2cccc(F)c2c(=O)n1-c1ccccc1 [CAL101] | – | 96.9 ± 17 | 97.88 ± 0.52 | 88.6 ± 25 | – | 87.5 ± 13 | 96.1 ± 14 | 86.7 ± 14 | – | 122 ± 4.8 | 68.4 ± 19 | 118 ± 38 | – | 77.4 ± 19 | 91.3 ± 18 | 87.3 ± 49 | – | 76.6 ± 14 | 95.6 ± 7.7 | 84.5 ± 3.2 | 88.8 ± 26 | 83.8 ± 32 | 110 ± 9.4 | 84.2 ± 3.7 | 72 ± 15
12 | COc1cc2nccc(Oc3ccc(NC(=O)C4(C(=O)Nc5ccc(F)cc5)CC4)cc3)c2cc1OC [Cabozantinib] | – | 110 ± 3.4 | 98.3 ± 13 | 94.5 ± 5 | – | 87.7 ± 22 | 104 ± 2.3 | 97.8 ± 2.8 | – | 103 ± 8.6 | 88.2 ± 3.7 | 100 ± 3.8 | – | 128 ± 10 | 130 ± 11 | 82.9 ± 26 | – | 132 ± 14 | 102 ± 2.8 | 111 ± 40 | 49.8 ± 18 | 61.9 ± 9.7 | 36.7 ± 24 | 25.8 ± 17 | 28.3 ± 19
